Laboratory results: patent US20100267779A1, “Novel Compounds and Methods of Using Them” (SYNDAX PHARMACEUTICALS, INC., priority 2007, published 2010)

Tested on: HDAC
Test: Alternative HDAC activity assay (Cayman Chemicals fluorescent-based HDAC activity assay)
Format: biochemical
Conditions: acetylated lysine substrate, HDAC developer, fluorescence readout; compared with MS-275
Protocol: Cayman Chemicals markets a commercial fluorescent-based HDAC activity assay. The assay utilizes a fluorescent-based method for measuring HDAC activity that eliminates radioactivity, extraction or chromatography. The assay requires two steps: first, an acetylated lysine substrate is incubated with samples containing HDAC activity. Deacetylation sensitizes the substrate such that treatment with the HDAC developer in the second step releases a fluorescent product. The fluorophore can be analyzed using a fluorescence plate reader or a fluorometer with […].

For C[C@@H](OC(=O)NCc1ccc(C(=O)Nc2ccccc2N)cc1)c1cccnc1 [(R)-1-(pyridin-3-yl)ethyl 4-(2-aminophenylcarbamoyl)benzylcarbamate], the “HDAC activity (fluorescent-based HDAC activity assay, FIG. 1)” value was “activity similar to MS-275”.

C[C@H](OC(=O)NCc1ccc(C(=O)Nc2ccccc2N)cc1)c1cccnc1 [(S)-1-(pyridin-3-yl)ethyl 4-(2-aminophenylcarbamoyl)benzylcarbamate] was tested, and the “HDAC activity (fluorescent-based HDAC activity assay, FIG. 1)” value was “activity similar to MS-275”.
